Bases are written 5' to 3'; sugars and linkages follow in the same order, as letters with counts (s phosphorothioate, o phosphodiester; PS: all linkages phosphorothioate). C may stand for cytosine or 5-methylcytosine; the collection does not tell. l = locked nucleic acid (LNA); d = 2'-deoxy (DNA)

For the data set, the target named is HIF1A. As to the kind of experiment: HeLa, 100 nM transfected, 24 h, mean of 3. The settings on record: ASO.
“TTACTGCCTTCTT (sugars l1 d9 l1 d1 l1, PS)”: the caspase activation (% of PBS control) was found to be 127.

The sequence TTACTGCCTTCTT (sugars l1 d9 l3, PS) came in with a caspase activation (% of PBS control) of 131.

TTACTGCCTTCTT (sugars l1 d10 l2, PS) displayed a caspase activation (% of PBS control) of 102.

As to TTACTGCCTTCTT (sugars l1 d11 l1, PS), the caspase activation (% of PBS control) is 82.9.

Turning to “TTACTGCCTTCTT (sugars l2 d1 l1 d6 l3, PS)”, the caspase activation (% of PBS control) was found to be 325.

Sequence “TTACTGCCTTCTT (sugars l2 d1 l1 d7 l2, PS)” returned a caspase activation (% of PBS control) of 202.

Sequence “TTACTGCCTTCTT (sugars l2 d1 l1 d8 l1, PS)” showed a caspase activation (% of PBS control) of 147.

Regarding “TTACTGCCTTCTT (sugars l2 d8 l1 d1 l1, PS)”, the caspase activation (% of PBS control) came out at 198.

For TTACTGCCTTCTT (sugars l2 d8 l3, PS), the caspase activation (% of PBS control) was 270.

TTACTGCCTTCTT (sugars l2 d9 l2, PS) had a caspase activation (% of PBS control) of 148.

For TTACTGCCTTCTT (sugars l2 d10 l1, PS), the caspase activation (% of PBS control) was 158.

“TTACTGCCTTCTT (sugars l3 d7 l1 d1 l1, PS)” came in with a caspase activation (% of PBS control) of 205.

Sequence TTACTGCCTTCTT (sugars l3 d7 l3, PS) came in with a caspase activation (% of PBS control) of 291.

With TTACTGCCTTCTT (sugars l3 d8 l2, PS), the caspase activation (% of PBS control) is 226.

TTACTGCCTTCTT (sugars l3 d9 l1, PS) displayed a caspase activation (% of PBS control) of 128.

“TTACTGCCTTCTT (sugars l4 d6 l1 d1 l1, PS)”: the caspase activation (% of PBS control) stood at 308.

Sequence TTACTGCCTTCTT (sugars l4 d6 l3, PS) came in with a caspase activation (% of PBS control) of 396.

Consider TTACTGCCTTCTT (sugars l4 d7 l2, PS), for which the caspase activation (% of PBS control) came out at 337.

As for TTACTGCCTTCTT (sugars l4 d8 l1, PS), the caspase activation (% of PBS control) stood at 202.

Regarding “TTACTGCCTTCTT (sugars lddlddddddldl, PS)”, the caspase activation (% of PBS control) turned out to be 127.

“TTACTGCCTTCTT (sugars ldldddddddldl, PS)”: the caspase activation (% of PBS control) stood at 154.

In turn, “TTACTGCCTTCTT (sugars ldllddddddldl, PS)” yielded a caspase activation (% of PBS control) of 181.

With “TTACTGCCTTCTT (sugars lldlddddddldl, PS)”, the caspase activation (% of PBS control) is 222.

The values above are taken from the OligoGym collection.
